In ChEMBL document CHEMBL1136052, “Identification of novel cyclooxygenase-2 selective inhibitors using pharmacophore models” (J Med Chem, 2002):
Values belong to the compound of their own block, whether it stands above or below them.

Tests used:
[1] = target: Prostaglandin G/H synthase 1 (Homo sapiens) (UniProt P23219); assay: Percent inhibition of arachidonic acid induced TXB2 generation in isolated human platelets (Prostaglandin G/H synthase 1 cell assay) at 10 uM; type: functional
[2] = target: Prostaglandin G/H synthase 1 (Homo sapiens) (UniProt P23219); conditions: 100 uM
[3] = target: T1, Prostaglandin G/H synthase 2 (Homo sapiens) (UniProt P35354); assay: % Inhibition of Prostaglandin G/H synthase 2 activity was evaluated at 10 uM concentration, in human whole blood as LPS-induced PGE-2 generation; type: functional, tissue-based
T1 sequence (whole entry): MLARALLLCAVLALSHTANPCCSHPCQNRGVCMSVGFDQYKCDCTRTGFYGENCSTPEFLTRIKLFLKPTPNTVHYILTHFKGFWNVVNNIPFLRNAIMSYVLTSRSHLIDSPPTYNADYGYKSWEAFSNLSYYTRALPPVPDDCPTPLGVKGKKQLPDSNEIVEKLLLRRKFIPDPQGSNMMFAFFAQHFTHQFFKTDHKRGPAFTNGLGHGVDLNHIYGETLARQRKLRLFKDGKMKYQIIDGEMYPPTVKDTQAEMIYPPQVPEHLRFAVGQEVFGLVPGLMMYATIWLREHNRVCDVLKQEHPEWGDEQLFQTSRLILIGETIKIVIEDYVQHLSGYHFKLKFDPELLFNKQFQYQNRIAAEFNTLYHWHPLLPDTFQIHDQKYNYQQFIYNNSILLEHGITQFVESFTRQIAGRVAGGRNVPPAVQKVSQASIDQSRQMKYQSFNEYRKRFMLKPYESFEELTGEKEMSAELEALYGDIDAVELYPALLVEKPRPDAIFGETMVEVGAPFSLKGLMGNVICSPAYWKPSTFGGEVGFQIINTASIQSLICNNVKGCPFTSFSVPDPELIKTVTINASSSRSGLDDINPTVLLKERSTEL

[4] = target: Prostaglandin G/H synthase 1 (Homo sapiens) (UniProt P23219); assay: Percent inhibition of arachidonic acid induced TXB2 generation in isolated human platelets (Prostaglandin G/H synthase 1 cell assay) at 10 uM.; type: functional
[5] = target: T2, Prostaglandin G/H synthase 2 (Homo sapiens, UniProt P35354); assay: Inhibition of PGE-2 generation in LPS-stimulated human monocytes (Prostaglandin G/H synthase 2 assay)
T2 sequence (P35354 whole entry): T1 sequence (whole entry)

Sequence of Prostaglandin G/H synthase 1 (Homo sapiens) (P23219 whole entry): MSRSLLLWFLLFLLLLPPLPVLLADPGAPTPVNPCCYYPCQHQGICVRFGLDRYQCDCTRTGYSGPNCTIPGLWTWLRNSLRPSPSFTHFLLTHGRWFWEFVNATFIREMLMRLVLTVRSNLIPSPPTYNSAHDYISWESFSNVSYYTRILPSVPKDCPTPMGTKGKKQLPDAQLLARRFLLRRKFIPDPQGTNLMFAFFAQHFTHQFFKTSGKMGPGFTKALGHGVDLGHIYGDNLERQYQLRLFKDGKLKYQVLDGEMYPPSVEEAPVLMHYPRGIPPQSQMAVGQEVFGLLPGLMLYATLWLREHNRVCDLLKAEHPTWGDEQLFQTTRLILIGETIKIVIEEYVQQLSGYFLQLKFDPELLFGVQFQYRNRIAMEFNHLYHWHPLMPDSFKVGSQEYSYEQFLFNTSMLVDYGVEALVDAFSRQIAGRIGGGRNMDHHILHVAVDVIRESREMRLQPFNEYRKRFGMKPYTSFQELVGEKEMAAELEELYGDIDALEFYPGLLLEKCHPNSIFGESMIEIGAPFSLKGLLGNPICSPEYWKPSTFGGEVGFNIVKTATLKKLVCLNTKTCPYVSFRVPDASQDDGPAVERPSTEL

Structure (SMILES): COC(=O)c1cc2cc(S(C)(=O)=O)ccc2n1Cc1ccc([N+](=O)[O-])cc1
inhibition [1]: 0%

Structure (SMILES): COC(=O)c1cc2cc(S(C)(=O)=O)ccc2n1Cc1ccc(Br)cc1
inhibition [1]: 25%

Structure (SMILES): COC(=O)c1cc2cc(S(C)(=O)=O)ccc2n1Cc1ccc(Cl)cc1
inhibition [1]: 19%
inhibition [2]: 25%

Structure (SMILES): COC(=O)c1cc2cc(S(C)(=O)=O)ccc2n1Cc1ccc(OC)cc1
inhibition [1]: 15%
inhibition [2]: 54%

Structure (SMILES): CS(=O)(=O)c1ccc2c(c1)cc(C(=O)O)n2Cc1ccc(Cl)cc1
inhibition [1]: 37%

The remaining lines, values ahead:

inhibition [3]: < 25%
inhibition [4]: 16%
IC50 [5]: 730 nM
Structure (SMILES): COC(=O)c1cc2cc(S(C)(=O)=O)ccc2n1C(=O)c1ccc(Cl)cc1

inhibition [4]: 15%
Structure (SMILES): COC(=O)c1cc2cc(S(C)(=O)=O)ccc2n1C(=O)c1ccc(Br)cc1
